Assay results reported in US20150141375A1 (priority 2009, published 2015).

How the values were obtained:
[1] = test system: Vaccinia Virus; experiment: microbe, parasite or virus in culture; assay type: cell-based
[2] = test system: HSV-1; experiment: In vitro potency against dsDNA viruses: HSV-1; assay type: cell-based
[3] = test system: HHV-6; experiment: In vitro potency against dsDNA viruses: HHV-6; assay type: cell-based
[4] = Oral toxicology studies, nephrotoxicity; assay type: in vivo, mice, rats, rabbits and monkeys
Source text: In addition, over twenty-one toxicology studies have been conducted in mice, rats, rabbits and monkeys with CMX001 being delivered by the oral route.

[5] = Safety and pharmacokinetics of CMX001 in healthy volunteers; assay type: in vivo, human; conditions: for AUC / Cmax: blood, Human, analyte = label
Description: An initial study was conducted to evaluate the safety and pharmacokinetics of CMX001 in healthy volunteers. The study consisted of a single dose arm (SD) and a multiple dose arm (MD). In the single dose arm 7 cohorts of 6 subjects were treated (4 subjects received active drug and 2 placebo). Enrollment was staggered as 2 subjects (one active, one placebo) followed by 4 subjects (Groups A and B). The estimated single doses for the two highest doses treated for a […] subject were 40 mg (0.6 mg/kg cohort 6) and 70 mg (1 mg/kg cohort 7). In the multiple dose arm, cohort 6MD received 0.1 mg/kg on Day 0, 6 and 12; Cohort 7MD received 0.2 mg/kg on Day 0, 6 and 12. Levels of cidofovir, CMX001 and CMX064 (major metabolite) were measured in blood and urine of subjects during the course of the study. Gastrointestinal (GI) monitoring of the subjects included (a) monitoring for clinical signs of GI adverse events, (b) monitoring for clinical symptoms using a visual Analog Scale, (c) monitoring for appetite loss/anorexia, nausea, vomiting, diarrhea, constipation and intestinal gas/bloating, (d) laboratory tests for fecal occult blood; serum electrolytes, urine specific gravity, BUN/creatinine ratio; serum albumin, and lipids, and (e) diagnostic studies (the Wireless capsule endoscopy (PillCam®, Given Imaging)).

[6] = test system: CMV
[7] = test system: HSV-2, strain MS; conditions: previous work; cited from earlier work
[8] = test system: adenovirus; experiment: Pediatric bone marrow transplant recipient with disseminated adenovirus infection
[9] = cohort 6, 600 μg/kg, still blinded

## CCCCCCCCCCCCCCCCOCCCOP(=O)(O)CO[C@H](CO)Cn1ccc(N)nc1=O [CMX001, Hexadecyloxypropyl-cidofovir]
[1]; CMX001 versus cidofovir EC50
  Enhanced Activity: 57
[1]; Orthopoxvirus vaccinia, HFF
  EC50: 800 nM
[2]; CMX001 versus cidofovir EC50
  Enhanced Activity: 250
[2]; Human alphaherpesvirus 1, MRC5, MRC-5
  EC50: 60 nM
[3]; CMX001 versus cidofovir EC50
  Enhanced Activity: 50
[3]; HSB2, HSB-2
  EC50: 4 nM
[4]; over twenty-one toxicology studies, oral route
  indication of nephrotoxicity: In none of these studies
[4]; single and repeated dosing in animals and human volunteers, 0.1 mg/kg to 4.0 mg/kg
  evidence of nephrotoxicity: no evidence of nephrotoxicity
[5]; 0.05 mg/kg, CMX001 0.050 mg/kg
  AUC: 36.3 ng·h/mL
  Cmax: 5.63 ng/mL
[5]; 0.1 mg/kg, CMX001 0.100 mg/kg
  AUC: 133 ng·h/mL
  Cmax: 10.6 ng/mL
[5]; 0.2 mg/kg, CMX001 0.200 mg/kg
  AUC: 225 ng·h/mL
  Cmax: 24.5 ng/mL
[5]; 0.4 mg/kg, CMX001 0.400 mg/kg
  AUC: 526 ng·h/mL
  Cmax: 68.1 ng/mL
[5]; 0.6 mg/kg, CMX001 0.600 mg/kg
  AUC: 729 ng·h/mL
  Cmax: 115 ng/mL
[5]; CMX001 0.025 mg/kg
  AUC: 18.5 ng·h/mL
  Cmax: 2.36 ng/mL
[5]; [9]
  adverse events: No serious adverse events (SAEs)
  clinical laboratory values: No drug associated clinically significant changes to clinical laboratory values
[6]; 2 of 5 patients without UL54 mutations
  average reduction in CMV by PCR: 1.2 log 10
[6]; 4 weeks, 7 patients
  median reduction in VL: greater than 1.2 log 10
[6]; patients with UL54 mutation (L501F and A987G)
  1 log reduction in viremia at the last time point: Neither of two patients
[6]; patients without mutations in CMV UL54 (3 of 5)
  complete response: 60%
[6]; two patients with pre-existing renal insufficiency
  dose adjustment for kidney function: no dose adjustment was needed based on kidney function
[7]
  optimal dose of CMX001 in this model: 5 mg/kg
[8]; 2-3 mg/kg
  tolerability: well tolerated
[8]; female, human, plasma, oral
  peak cidofovir concentrations, fold lower than label for 5 mg/kg Vistide: more than 100 fold
[8]; oral CMX001
  decrease in viral load: 8 log
